Experimental data as given in patent publication US6331555A, “Treatment of platelet derived growth factor related disorders such as cancers” (priority 1999, dated 2001).
pIC50: −log10 of the molar value. Read-outs that look alike come from different tables or passages of the source.

What was measured:
PDGFR = PDGFR (Homo sapiens, UniProt P09619); experiment: PDGF-stimulated receptor phosphorylation in U1242 cells, ELISA; assay type: cell-based; parameters: U1242 (PDGF-β receptor); host or cells: U1242 MG glioma cells; conditions: for pIC50: 100 ng/ml PDGF-BB, read-out: ELISA P-TYR U1242 IC50
PDGFR, sequence (P09619 33-1106): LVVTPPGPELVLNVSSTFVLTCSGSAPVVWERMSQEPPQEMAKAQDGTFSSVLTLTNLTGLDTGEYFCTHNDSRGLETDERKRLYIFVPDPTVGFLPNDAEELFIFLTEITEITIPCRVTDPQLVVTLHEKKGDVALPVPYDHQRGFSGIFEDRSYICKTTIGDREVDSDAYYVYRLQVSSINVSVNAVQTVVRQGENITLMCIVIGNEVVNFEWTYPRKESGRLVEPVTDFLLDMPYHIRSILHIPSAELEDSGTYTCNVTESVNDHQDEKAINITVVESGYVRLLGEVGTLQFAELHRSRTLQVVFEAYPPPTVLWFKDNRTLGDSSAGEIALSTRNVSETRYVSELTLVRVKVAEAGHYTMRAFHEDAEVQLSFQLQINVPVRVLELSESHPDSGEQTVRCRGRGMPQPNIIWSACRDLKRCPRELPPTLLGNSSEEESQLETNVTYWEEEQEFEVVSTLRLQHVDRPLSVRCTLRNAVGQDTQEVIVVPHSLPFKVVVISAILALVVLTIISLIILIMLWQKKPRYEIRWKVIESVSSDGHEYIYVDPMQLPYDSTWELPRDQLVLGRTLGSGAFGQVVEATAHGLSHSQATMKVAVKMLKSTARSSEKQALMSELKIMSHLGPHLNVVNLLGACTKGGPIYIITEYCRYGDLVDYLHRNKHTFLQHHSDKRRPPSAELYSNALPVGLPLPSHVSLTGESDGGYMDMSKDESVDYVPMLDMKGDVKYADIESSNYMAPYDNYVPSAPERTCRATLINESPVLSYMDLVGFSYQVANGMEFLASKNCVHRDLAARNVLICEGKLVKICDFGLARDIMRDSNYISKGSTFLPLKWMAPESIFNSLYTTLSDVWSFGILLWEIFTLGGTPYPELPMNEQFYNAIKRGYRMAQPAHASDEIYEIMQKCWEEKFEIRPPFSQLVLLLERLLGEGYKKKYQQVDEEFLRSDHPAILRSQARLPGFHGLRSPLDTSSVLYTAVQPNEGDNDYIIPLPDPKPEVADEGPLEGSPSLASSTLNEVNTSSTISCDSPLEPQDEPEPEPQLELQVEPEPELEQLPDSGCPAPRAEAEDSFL
Procedure, shortened: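 U1242 MG cells in 0.5% serum were pretreated with compound for 2 h at 37° C, then stimulated 5–10 min with PDGF-BB (100 ng/ml). Lysates captured on anti-PDGF receptor-coated plates; receptor phosphotyrosine detected by anti-phosphotyrosine ELISA with POD/ABTS read-out at 410 nm.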

EGFR = target: T1, EGFR (Homo sapiens, UniProt P00533); experiment: Receptor tyrosine kinase inhibition, EGFR; assay type: cell-based
T1 construct: expressed in transfected cells; host or cells: NIH3T3 mouse fibroblasts, retroviral vector
T1 sequence (P00533 25-1210): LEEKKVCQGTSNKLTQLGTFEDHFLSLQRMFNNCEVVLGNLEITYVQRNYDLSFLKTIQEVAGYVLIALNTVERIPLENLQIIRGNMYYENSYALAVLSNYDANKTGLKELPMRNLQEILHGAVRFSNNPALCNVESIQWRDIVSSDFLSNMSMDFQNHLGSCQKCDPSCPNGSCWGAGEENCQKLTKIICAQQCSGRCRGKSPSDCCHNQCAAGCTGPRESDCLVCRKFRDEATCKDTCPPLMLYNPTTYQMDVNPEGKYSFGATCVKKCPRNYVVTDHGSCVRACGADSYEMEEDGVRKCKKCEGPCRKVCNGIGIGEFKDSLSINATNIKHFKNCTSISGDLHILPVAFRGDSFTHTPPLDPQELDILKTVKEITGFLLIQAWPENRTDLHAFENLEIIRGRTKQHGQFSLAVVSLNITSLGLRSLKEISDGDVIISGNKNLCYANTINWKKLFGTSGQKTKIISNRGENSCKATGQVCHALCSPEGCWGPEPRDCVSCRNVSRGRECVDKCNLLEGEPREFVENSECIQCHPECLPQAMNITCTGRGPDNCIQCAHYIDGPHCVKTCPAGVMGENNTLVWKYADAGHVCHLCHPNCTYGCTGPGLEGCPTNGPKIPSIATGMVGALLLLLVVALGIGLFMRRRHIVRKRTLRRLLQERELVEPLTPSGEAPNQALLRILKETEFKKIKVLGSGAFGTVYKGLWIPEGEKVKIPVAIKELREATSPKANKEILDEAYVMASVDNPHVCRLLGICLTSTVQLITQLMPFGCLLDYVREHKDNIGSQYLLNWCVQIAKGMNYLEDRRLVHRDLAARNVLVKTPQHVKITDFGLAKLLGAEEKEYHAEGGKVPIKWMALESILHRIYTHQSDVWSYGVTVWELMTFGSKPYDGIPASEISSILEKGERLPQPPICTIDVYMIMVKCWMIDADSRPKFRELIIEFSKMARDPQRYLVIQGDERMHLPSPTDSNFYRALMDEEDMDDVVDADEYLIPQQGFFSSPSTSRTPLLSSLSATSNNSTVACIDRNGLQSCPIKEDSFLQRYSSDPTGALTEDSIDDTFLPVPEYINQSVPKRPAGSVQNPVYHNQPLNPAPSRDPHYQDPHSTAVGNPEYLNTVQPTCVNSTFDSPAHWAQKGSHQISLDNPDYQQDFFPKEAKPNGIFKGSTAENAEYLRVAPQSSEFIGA
Method: For western blotting, cells were plated in 2 mL growth medium into 6-well dishes (500,000 cells per well) and allowed to attach overnight. The medium was replaced with 2 mL MCDB 105 (UCSF Cell Culture Facility) supplemented with 1% FBS. The plates were then incubated overnight at 37° C., ambient CO2. […] After a 7 min incubation at room temperature with ligand, the plates were put on ice and washed three times with 1 mL ice-cold PBS plus 1 mM orthovanadate. Lysis was achieved by pipetting cells in 0.5 mL of buffer containing 50 mM Tris, pH 7.4, 10% glycerol, 1% NP-40, 2 mM EDTA, 1 mM sodium vanadate (Na3 VO4), 10 mM pyrophosphate, 1 mM PMSF, […]. A 300 μL aliquot of each lysate was immediately added to 100 μL 4×Laemmli sample buffer ([…] Tris pH 6.9, 20% glycerol, 7% SDS, 5 mM EDTA, 5% β-mercaptoethanol) containing phosphatase inhibitors, 2 mM Na3 VO4 and 10 mM pyrophosphate. Samples were boiled for 5 min, frozen in dry ice-ethanol, and stored at -80° C. Proteins were resolved by SDS-PAGE (Bio-Rad Miniprotean II) and transferred to nitrocellulose membrane (Schleicher & Schuell) at 120 volts for 1 hr at room temperature in buffer containing 25 mM Tris pH 8.3, 20% methanol, 0.2 M glycine, 0.1% SDS. The integrity of the protein-to-membrane transfer was determined by staining with 1% Ponceau S in 5% acetic acid for 5 min. After destaining in several distilled water rinses, the membrane was soaked overnight in blocking buffer containing 5% milk in Tris-buffered saline, 0.05% Tween 20. Phosphotyresine was detected by incubating the membrane (1 hr at room temperature) with an anti-phosphotyosine antiserum diluted in blocking buffer at 1:3000. For C6 cells, PDGF-β receptor content in the lysates was confirmed in duplicate sample lanes by western blotting using an antibody specific for PDGF-β receptor (UBI). The antibodies were visualized using ECL reagent from Amersham and by exposure to Fuji RX film.
For ELISA assays, cells were grown to 80-90% confluency in growth medium and seeded in 96-well tissue culture plates in 0.5% serum at 25,000 to 30,000 cells per well. After overnight incubation in 0.5% serum-containingmedium, cells were changed to serum-free medium and treated with test compound for 2 hr in a 5% CO2, 37° C. incubator. Cells were then stimulated with ligand for 5-10 min followed by lysis with HNTG (20 mM Hepes, 150 mM NaCl, 10% glycerol, 5 mM EDTA, 5 mM Na3 VO4 0.2% Triton X-100, and 2 mM NaPyr). Cell lysates (0.5 mg/well in PBS) were transferred to ELISA plates previously coated with receptor-specific antibody and which had been blocked with 5% milk in TBST (50 mM Tris-HCl pH 7.2, 150 mM NaCl and 0.1% Triton X-100) at room temperature for 30 min. Lysates were incubated with shaking for 1 hr at room temperature. The plates were washed with TBST four times and then incubated with polyclonol anti-phosphotyrosine antibody at room temperature for 30 min. Excess anti-phosphotyrosine antibody was removed by rinsing the plate with TBST four times. Goat anti-rabbit IgG antibody was added to the ELISA plate for 30 min at room temperature followed by rinsing with TBST four more times.
The ability of different compound to inhibit different receptor tyrosine kinases was tested.

Row | pIC50 (PDGFR) | pIC50 (EGFR; W = done in Western assay, read-out: EGFR ID50 (W)) | Structure (SMILES) | inhibition of PDGF-stimulated receptor phosphorylation (PDGFR) | EGF receptor phosphorylation (EGFR) | pIC50 (EGFR; read-out: EGFR ID50)
1 | 4.70 | – | CN(C)CCCn1cc(C=C(C#N)c2[nH]nc(N)c2C#N)c2ccccc21 [Compound D15] | – | – | –
2 | 5.00 | 3.30 | Cc1cc2nc(-c3ccccc3)c(=O)[nH]c2cc1C [Compound G18] | – | – | –
3 | 5.10 | – | N#CC(=Cc1c[nH]c2ccccc12)C(N)=S [Compound D11] | – | – | –
4 | 4.70 | – | N#CC(=Cc1c[nH]c2ccccc12)c1[nH]nc(N)c1C#N [Compound D14] | – | do not effect EGF or HER2 phosphorylation | < 4.00
5 | 4.35 | – | O=c1c2ccccc2nc(C=Cc2ccc(O)c(O)c2)n1CCO [Compound F10] | – | – | –
6 | – | – | Cc1cc2ncc(-c3ccccc3)nc2cc1C [Compound G13] | had the lowest IC50 | do not effect EGF or HER2 phosphorylation | –

Row | Structure (SMILES) | pIC50 (PDGFR) | pIC50 (EGFR; W = done in Western assay, read-out: EGFR ID50 (W)) | inhibition of PDGF-stimulated receptor phosphorylation (PDGFR) | EGF receptor phosphorylation (EGFR) | pIC50 (EGFR; read-out: EGFR ID50)
7 | COc1cc2ncc(-c3ccccc3)nc2cc1OC [Compound G14] | 6.10 | – | had the lowest IC50 | do not effect EGF or HER2 phosphorylation | –
8 | c1ccc(-c2cnc3cc4ccccc4cc3n2)cc1 [Compound G22] | 6.00 | – | – | – | < 4.00
9 | Cc1oncc1C(=O)Nc1ccc(C(F)(F)F)cc1 [Compound A10, 5-methylisoxazole-4 carboxylic acid-(4-trifluromethyl)-anilide] | 4.19 | – | – | little if any effect on EGF-receptor or HER2 phosphorylation | –
